# In EP2982368A1, “Small molecule compounds displacing focal adhesion core components” (Universität Konstanz, priority 2014, dated 2016):
# Biological target: T1, FAK/Paxillin (Mus musculus, UniProt P34152+Q8VI36)
# T1 construct: expressed in transfected cells; host or cells: mouse fibroblasts stably expressing GFP-FAK
# Assay: FAK/Paxillin displacement by structurally related compounds (FootLocker series, confocal microscopy)
# Format: cell-based
# Set-up: key to Activtiy (activity towards FAK/Paxillin displacement): ++ indicates displacing effect at 5 µM; + at 20 µM; - indicates no observed effect
# Method: To determine whether compounds structurally related to Mb31 and Mb36 are likewise suitable to interfere with FAK localization at focal adhesions, mouse fibroblasts stably expressing GFP-FAK were treated for 30 min with 1, 10 or 20 µM of the following compounds: trans-3-hydroxy-β-nitrostyrene (THBN), trans-4-Chloro-β-nitrostyrene (T4CN), trans-β-nitrostyrene (TBN), 4-chlorocinnamic acid (4CA), and trans-3-(4-bromothiophen-2-yl)acrylic acid (T34BA) (Figures 16 and 17). The cells were analyzed by confocal microscopy for GFP-FAK localization. DMSO treatment served as a vehicle control. […] Additional substituents at the aromatic structures, such as halogen atoms or hydroxy groups may contribute to the reactivity of the compound, but are not essential. Based on these findings, the inventors have extended their structure activity-relationship studies and synthesized additional related compounds, which, similar to Mb31, displace FAK and paxillin at concentrations below 10µM (++), displace FAK and paxillin at concentrations above 10 µM (+), or lack FAK and paxillin displacing activity (-). All these substances were then also nicknamed in the FLocker terminology, resulting in FLocker1 - FLocker24 (Table 2). Table 2: Overview of FootLocker nomenclature, their chemical notation/structure and the activity towards FAK/Paxillin displacement
# T1 sequence (P34152 whole entry): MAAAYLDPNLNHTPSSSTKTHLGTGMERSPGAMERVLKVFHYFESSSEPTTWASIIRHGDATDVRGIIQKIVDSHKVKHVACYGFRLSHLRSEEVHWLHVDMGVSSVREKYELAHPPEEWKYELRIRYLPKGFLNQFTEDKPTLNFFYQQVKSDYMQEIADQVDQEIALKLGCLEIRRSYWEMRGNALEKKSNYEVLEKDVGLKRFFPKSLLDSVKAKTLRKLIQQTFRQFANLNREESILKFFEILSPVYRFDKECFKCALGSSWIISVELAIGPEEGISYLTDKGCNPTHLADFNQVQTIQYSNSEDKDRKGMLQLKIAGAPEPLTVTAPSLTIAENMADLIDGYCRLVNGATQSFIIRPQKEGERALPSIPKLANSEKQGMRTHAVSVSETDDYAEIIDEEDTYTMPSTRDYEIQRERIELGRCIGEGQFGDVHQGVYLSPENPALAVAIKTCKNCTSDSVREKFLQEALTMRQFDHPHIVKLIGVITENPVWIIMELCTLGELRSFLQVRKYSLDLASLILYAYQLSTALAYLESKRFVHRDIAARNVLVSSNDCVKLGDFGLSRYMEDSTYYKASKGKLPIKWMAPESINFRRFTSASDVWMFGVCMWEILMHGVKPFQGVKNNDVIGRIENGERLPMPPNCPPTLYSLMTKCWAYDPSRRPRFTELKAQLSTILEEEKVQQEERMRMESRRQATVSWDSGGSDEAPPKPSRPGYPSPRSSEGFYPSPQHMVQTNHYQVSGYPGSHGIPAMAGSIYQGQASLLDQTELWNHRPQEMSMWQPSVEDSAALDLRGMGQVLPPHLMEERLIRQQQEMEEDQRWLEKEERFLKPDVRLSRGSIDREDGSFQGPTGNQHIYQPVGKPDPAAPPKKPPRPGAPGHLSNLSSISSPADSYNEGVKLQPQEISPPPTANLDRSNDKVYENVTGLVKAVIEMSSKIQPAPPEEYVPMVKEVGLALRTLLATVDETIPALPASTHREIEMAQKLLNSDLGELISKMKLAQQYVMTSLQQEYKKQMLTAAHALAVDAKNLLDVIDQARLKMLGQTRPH
# T1 sequence (Q8VI36 whole entry): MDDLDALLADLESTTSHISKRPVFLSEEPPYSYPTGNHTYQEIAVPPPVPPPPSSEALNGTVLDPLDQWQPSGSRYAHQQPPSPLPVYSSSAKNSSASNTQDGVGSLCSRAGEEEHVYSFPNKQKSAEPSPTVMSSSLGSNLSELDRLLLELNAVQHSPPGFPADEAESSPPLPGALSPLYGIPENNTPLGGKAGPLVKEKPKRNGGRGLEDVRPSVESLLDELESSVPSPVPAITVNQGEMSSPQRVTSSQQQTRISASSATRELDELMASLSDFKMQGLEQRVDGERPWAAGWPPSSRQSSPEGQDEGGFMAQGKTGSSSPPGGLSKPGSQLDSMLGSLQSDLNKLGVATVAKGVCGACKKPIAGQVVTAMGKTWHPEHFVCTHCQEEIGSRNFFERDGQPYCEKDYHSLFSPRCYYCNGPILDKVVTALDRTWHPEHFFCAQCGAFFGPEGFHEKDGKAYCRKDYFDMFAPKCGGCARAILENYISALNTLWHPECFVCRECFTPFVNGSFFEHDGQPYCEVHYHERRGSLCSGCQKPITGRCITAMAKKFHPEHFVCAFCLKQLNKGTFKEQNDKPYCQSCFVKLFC
Structure (SMILES),compounds showing the most prominent effect on protein-protein interactions at focal adhesion site,disruption of protein-protein interactions at focal adhesion site,Activtiy (activity towards FAK/Paxillin displacement)
"COc1cccc(/C=C/[N+](=O)[O-])c1 [FootLocker 4, (E)-1-methoxy-3-(2-nitrovinyl)benzene]",most prominent effect,efficiently disrupt protein-protein interactions at focal adhesion site,
"[N-]=[N+]=NCCOCCOCCOCCNC(=O)CCCCCCOc1cccc(/C=C/[N+](=O)[O-])c1 [FootLocker 7, (E)-N-(2-(2-(2-(2-azidoethoxy)ethoxy)ethoxy)ethyl)-7-(3-(2-nitrovinyl)phenoxy)heptanamide]",,efficiently disrupt protein-protein interactions at focal adhesion site,
"O=[N+]([O-])/C=C/c1ccccc1O [FootLocker 8, (E)-2-(2-nitrovinyl)phenol]",,efficiently disrupt protein-protein interactions at focal adhesion site,
"Cc1ccc(/C=C/[N+](=O)[O-])cc1 [FootLocker 10, (E)-1-methyl-4-(2-nitrovinyl) benzene]",most prominent effect,efficiently disrupt protein-protein interactions at focal adhesion site,
"O=[N+]([O-])/C=C/c1cccc(Br)c1 [FootLocker 11, (E)-1-bromo-3-(2-nitrovinyl)benzene]",,efficiently disrupt protein-protein interactions at focal adhesion site,
"O=[N+]([O-])/C=C/c1cccc(Cl)c1 [FootLocker 12, (E)-1-chloro-3-(2-nitrovinyl)benzene]",,efficiently disrupt protein-protein interactions at focal adhesion site,
"O=[N+]([O-])/C=C/c1cccc([N+](=O)[O-])c1 [FootLocker 13, (E)-1-nitro-3-(2-nitrovinyl)benzene]",most prominent effect,efficiently disrupt protein-protein interactions at focal adhesion site,
"C/C(=C\c1ccccc1)[N+](=O)[O-] [FootLocker 15, (E)-(2-nitroprop-1-en 1-yl)benzene]",,efficiently disrupt protein-protein interactions at focal adhesion site,
"C/C(=C\c1ccc(Br)cc1)[N+](=O)[O-] [FootLocker 16, 1-bromo-4-[(1E)-2-nitro-1-propenyl]benzene]",most prominent effect,efficiently disrupt protein-protein interactions at focal adhesion site,
"O=[N+]([O-])C=Cc1ccco1 [FootLocker 17, 2-(2-Nitrovinyl)-furan]",most prominent effect,efficiently disrupt protein-protein interactions at focal adhesion site,
"O=[N+]([O-])C=Cc1cccnc1 [FootLocker 18, 3-(2-nitro-vinyl)-pyridine]",,efficiently disrupt protein-protein interactions at focal adhesion site,
O=[N+]([O-])/C=C/c1cc(Br)cs1 [compound 1],,,++ (++ indicates displacing effect at 5 µM)
Nc1ccc(SC(C[N+](=O)[O-])c2ccc(Cl)cc2)cc1 (centres unmarked) [compound 2],,,++ (++ indicates displacing effect at 5 µM)
O=[N+]([O-])/C=C/c1cccc(O)c1 [compound 3],,,++ (++ indicates displacing effect at 5 µM)
COc1cccc(/C=C/[N+](=O)[O-])c1 [compound 4],,,++ (++ indicates displacing effect at 5 µM)
CCOC(=O)CCCCCOc1ccc(/C=C/[N+](=O)[O-])cc1 [compound 5],,,+ (+ at 20 µM)
[N-]=[N+]=NCCOCCOCCOCCNC(=O)CCCCCCOc1cccc(C=O)c1 [compound 6],,,-
[N-]=[N+]=NCCOCCOCCOCCNC(=O)CCCCCCOc1cccc(/C=C/[N+](=O)[O-])c1 [compound 7],,,+ (+ at 20 µM)
